In brackets after ≈: the same amount, converted by molar mass. Entries after “also recorded” stand apart in the source; their conditions may differ. Like-named read-outs stand apart in the source and are kept apart here.
Legend:
S. aureus membranes = molecular target: S. aureus membranes; design: species or system Staphylococcus aureus; settings: read-out: Kd (membrane binding)
Staphylococcus aureus = test: Antibacterial activity (MIC in MH broth); format: cell-based; settings: for MIC: Staphylococcus aureus; for inhibition of bacterial growth (result in words): at 100 μM
agr = test: microbe, parasite or virus in culture; format: cell-based, Staphylococcus aureus; settings: for IC50: Staphylococcus aureus, read-out: agr IC50; for difference between MIC and agr IC50: MIC relative to agr IC50; for effect of double bond in acyl chain on activity: S18 cf. 15, S19 cf. 16
AgrC-1 = format: cell-based, Staphylococcus aureus; settings: for competition with AIP-1 for cognate AgrC: blaZ-based agrP3 reporter
S. aureus USA300 = format: cell-based, Staphylococcus aureus; settings: 4 at up to 100 μM
C. difficile = test system: C. difficile; design: method as in PMID 19917748; settings: cited from earlier work
P. aeruginosa = test system: P. aeruginosa; design: method as in PMID 21502732; settings: cited from earlier work
S. aureus strain Newman = settings: mouse, in vivo
[1] = test system: adherence of S. aureus to human nasal squamous cells; format: cell-based, Staphylococcus aureus
[2] = design: method as in PMID 15623555, PMID 22178671; settings: cited from earlier work

Structure (SMILES): CCCCCCCCCC(=O)C1=C(O)COC1=O [Compound 15]
- Kd (S. aureus membranes): 258 µM

Structure (SMILES): CCCCCCCCOC(=O)CC(=O)N[C@H]1CCOC1=O [Compound S12]
- MIC (Staphylococcus aureus): > 100 µM
- IC50 (agr): > 100 µM

Structure (SMILES): O=C1N[C@@H](CCO)C(=O)/C1=C(/O)Cc1ccc([N+](=O)[O-])cc1 [Compound 11]
- MIC (Staphylococcus aureus): > 100 µM
- IC50 (agr): > 100 µM

Structure (SMILES): CCCCCCCCN(C)C(=O)CC(=O)N[C@H]1CCOC1=O [Compound S11]
- MIC (Staphylococcus aureus): > 100 µM
- IC50 (agr): > 100 µM

Structure (SMILES): CCCCCCCCCC/C(O)=C1/C(=O)N[C@@H](CCO)C1=O [Compound 6]
- difference between MIC and agr IC50 (agr): 5 fold

Structure (SMILES): CCCCCCCCNC(=O)CC(=O)N[C@H]1CCOC1=O [Compound S10]
- MIC (Staphylococcus aureus): > 100 µM
- IC50 (agr): > 100 µM

Structure (SMILES): CCCCCCCCCCCC(=O)C1=C(O)COC1=O [Compound 16, 3-Dodecanoyltetronic Acid]
- Kd (S. aureus membranes): 72 µM
- fold more potent in preventing AIP-mediated activation of AgrC (AgrC-1; 16 versus 1 and 5): at least 5 fold
- competition with AIP-1 for cognate AgrC (AgrC-1): do not compete

Structure (SMILES): CCCCCCCCCCC/C(O)=C1/C(=O)N[C@@H](CCO)C1=O [Compound 7, (S)-3-Dodecanoyl-5-(2-hydroxyethyl)tetramic Acid]
- Kd (S. aureus membranes): 23 µM

Structure (SMILES): O=C(Cc1ccc(Br)cc1)C1=C(O)COC1=O [Compound S21]
- MIC (Staphylococcus aureus): > 100 µM
- IC50 (agr): > 100 µM

Structure (SMILES): CCCCCCC/C(O)=C1/C(=O)N[C@@H](CCO)C1=O [Compound 4]
- MIC (Staphylococcus aureus): > 100 µM
- inhibition of bacterial growth (result in words) (Staphylococcus aureus): did not inhibit growth
- staphylococcal growth (S. aureus USA300): without affecting staphylococcal growth; also recorded: without inhibiting the growth

Structure (SMILES): CCCCCCCCCC(=O)CC(=O)Nc1nccs1 [Compound S3]
- MIC (Staphylococcus aureus): > 100 µM
- IC50 (agr): > 100 µM

Structure (SMILES): CCCCCCCCCC(=O)CC(=O)N[C@@H](CCO)C(=O)O [Compound S1, N-(3-oxododecanoyl)-L-homoserine]
- MIC (Staphylococcus aureus): > 100 µM
- inhibited agr (result in words) (agr): neither
- IC50 (agr): > 100 µM

Structure (SMILES): O=C(COc1ccc(Br)cc1)C1=C(O)COC1=O [Compound S22]
- MIC (Staphylococcus aureus): > 100 µM
- IC50 (agr): > 100 µM

Structure (SMILES): CCCCCCCCCCCC(=O)N[C@H]1CCOC1=O [Compound S8]
- MIC (Staphylococcus aureus): > 100 µM
- IC50 (agr): > 100 µM

Structure (SMILES): O=C(CCCC1CCCCC1)CC(=O)N[C@H]1CCOC1=O [Compound S16]
- MIC (Staphylococcus aureus): > 100 µM
- IC50 (agr): > 100 µM

Structure (SMILES): CCCCC/C=C/CCC(=O)C1=C(O)COC1=O [Compound S18]
- effect of double bond in acyl chain on activity (agr): little effect on activity

Structure (SMILES): CCCCCCCCCC(=O)CC(=O)C1=C(O)COC1=O [Compound S24]
- MIC (Staphylococcus aureus): > 100 µM
- IC50 (agr): > 100 µM

Structure (SMILES): CCCCCC/C=C\CCCC(=O)C1=C(O)COC1=O [Compound S19]
- MIC (Staphylococcus aureus): > 100 µM
- effect of double bond in acyl chain on activity (agr): almost abolished

Structure (SMILES): CC(C)CCCCCCC(=O)C1=C(O)COC1=O [Compound S17]
- MIC (Staphylococcus aureus): > 100 µM
- IC50 (agr): > 100 µM

Structure (SMILES): CCCCCCCCCCCCCCCC(=O)C1=C(O)COC1=O [Compound 18]
- MIC (Staphylococcus aureus): > 100 µM

Structure (SMILES): CCCCCC(=O)C1=C(O)COC1=O [Compound 14]
- MIC (Staphylococcus aureus): > 100 µM

Structure (SMILES): CCCCC/C=C/CCC(=O)CC(=O)N[C@H]1CCOC1=O [Compound S14]
- MIC (Staphylococcus aureus): > 100 µM
- IC50 (agr): > 100 µM

Structure (SMILES): CCCCCCCCC/C(O)=C1/C(=O)N[C@H](CCO)C1=O [Compound 9]
- MIC (Staphylococcus aureus): > 100 µM
- fold improvement of agr inhibitory activity (agr; (R)-9 versus (S)-5): 1.5 fold

Structure (SMILES): O=C(Cc1ccc([N+](=O)[O-])cc1)C1=C(O)COC1=O [Compound S20]
- MIC (Staphylococcus aureus): > 100 µM
- IC50 (agr): > 100 µM

Structure (SMILES): CCCCCCCCCC(=O)CC(=O)O[C@H]1CCOC1=O [Compound S13]
- MIC (Staphylococcus aureus; S. aureus, Table S1, read-out: MIC): > 100 µM
- IC50 (agr): > 100 µM

Structure (SMILES): CCCCCCCCCC(=O)CC(N)=O [Compound S2, 3-oxododecanamide]
- MIC (Staphylococcus aureus): > 100 µM
- inhibited agr (result in words) (agr): neither
- IC50 (agr): > 100 µM

Structure (SMILES): CCC/C(O)=C1/C(=O)N[C@@H](CCO)C1=O [Compound 3]
- MIC (Staphylococcus aureus): > 100 µM
- inhibition of bacterial growth (result in words) (Staphylococcus aureus): did not inhibit growth
- killing of C. difficile (C. difficile): not C. difficile
- killing of P. aeruginosa (P. aeruginosa): kill P. aeruginosa
- IC50 (agr): > 100 µM

Structure (SMILES): CCCCCCCCCC(=O)CC(=O)N[C@H]1CCNC1=O [Compound S5]
- MIC (Staphylococcus aureus): > 100 µM
- IC50 (agr): > 100 µM

Structure (SMILES): CCCCCCCCCC(=O)CC(=O)N[C@@H]1CCOC1=O [Compound 2]
- fold less active in agr inhibition than L-isomer 1 (agr; D-isomer 2 versus 1): approximately 2 fold

Structure (SMILES): CCCC(=O)CC(=O)C1=C(O)COC1=O [Compound S23]
- MIC (Staphylococcus aureus): > 100 µM
- IC50 (agr): > 100 µM

Structure (SMILES): CCCCCCCCCC(=O)CC(=O)N[C@H]1CCSC1=O [Compound S4]
- MIC (Staphylococcus aureus): > 100 µM
- IC50 (agr): > 100 µM

Structure (SMILES): CCCCCCCCC/C(O)=C1\C(=O)CNC1=O [Compound 13, 3-decanoyltetramic acid]
- inhibited agr (result in words) (agr): enhanced agr inhibitory activity

Structure (SMILES): CCCCCCCCCC(O)CC(=O)N[C@H]1CCOC1=O (some centres unmarked) [Compound S9]
- MIC (Staphylococcus aureus): > 100 µM
- IC50 (agr): > 100 µM

Structure (SMILES): CCCCCCCCC/C(O)=C1/C(=O)N[C@@H](C)C1=O [Compound 12, (S)-3-Decanoyl-5-methyltetramic acid]
- inhibited agr (result in words) (agr): enhanced agr inhibitory activity

Structure (SMILES): CCCCCCCCCCCCC/C(O)=C1/C(=O)N[C@@H](CCO)C1=O [Compound 8]
- fold lower MIC (Staphylococcus aureus; versus 5 (MIC 100 μM)): 8 fold
- Kd (S. aureus membranes): 2 µM
- difference between MIC and agr IC50 (agr): little different

Structure (SMILES): CCCCCCCCCC(=O)CC(=O)N[C@H]1CCOC1=O [Compound 1, N-(3-oxododecanoyl)-L-homoserine lactone]
- MIC (Staphylococcus aureus; S. aureus, MH broth, Table 1, read-out: MIC): 100 µM (≈ 29.7 µg/mL)
- Kd (S. aureus membranes): 270 µM
- competition with AIP-1 for cognate AgrC (AgrC-1): do not compete

Structure (SMILES): O=C1N[C@@H](CCO)C(=O)/C1=C(/O)CCCC1CCCCC1 [Compound 10]
- MIC (Staphylococcus aureus): > 100 µM
- IC50 (agr): > 100 µM

Structure (SMILES): CCCCCCCCC/C(O)=C1/C(=O)N[C@@H](CCO)C1=O [Compound 5, (S)-3-Decanoyl-5-(2-hydroxyethyl)tetramic Acid]
- activity in murine infection model (S. aureus strain Newman): inactive
- attachment of S. aureus to human squamous cells [1]: substantially reduced attachment
- Kd (S. aureus membranes): 222 µM
- competition with AIP-1 for cognate AgrC (AgrC-1): do not compete
- decrease of maximum level of activation by AIP-1 (AgrC-1; increasing concentrations of 5 from 0 to 100 μM): over 10 fold
- ferric ion chelator (result in words) [2]: ferric ion chelators

Structure (SMILES): O=C(CCCc1ccccc1)CC(=O)N[C@H]1CCOC1=O [Compound S15]
- MIC (Staphylococcus aureus): > 100 µM
- IC50 (agr): > 100 µM

Structure (SMILES): CCCCCCCCCC(=O)CC(=O)N[C@H]1CCC(=O)NC1=O [Compound S6]
- MIC (Staphylococcus aureus): > 100 µM
- IC50 (agr): > 100 µM

Structure (SMILES): CCCCCCCCCC(=O)CC(=O)N[C@H]1CC(=O)NC1=O [Compound S7]
- MIC (Staphylococcus aureus): > 100 µM
- IC50 (agr): > 100 µM

Source: PMC4010551, “Targeting Staphylococcus aureus Quorum Sensing with Nonpeptidic Small Molecule Inhibitors” (Journal of Medicinal Chemistry, 2014)
